Where “and” joins values, the source holds several entries; their conditions need not be identical. Identical values can stand only once.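 Five compound concentrations were applied to cells in 96-well plates for 48 hours; endpoints were derived by simple linear interpolation of the resulting dose-response curve. GI50 = concentration required for 50% inhibition of growth.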 Calls of active or inactive are those of the source. No stated cut-off is given here; in the data, active = GI50 up to about 1.1 µM and inactive = higher.
Experiments:
Assay in all cases: growth of human tumour cells (NCI), 48 h
COLO 205 = system: COLO 205
M14 = system: M14
T47D = system: T47D
UACC-62 = system: UACC-62
NCI-H226 = system: NCI-H226
SW-620 = system: SW-620
SNB-75 = system: SNB-75
OVCAR-5 = system: OVCAR-5
LOX IMVI = system: LOX IMVI
SR = system: SR
ACHN = system: ACHN
SK-MEL-2 = system: SK-MEL-2
HOP-92 = system: HOP-92
UO-31 = system: UO-31
SN12C = system: SN12C
SK-OV-3 = system: SK-OV-3
786-0 = system: 786-0
HCT-116 = system: HCT-116
MDA-N = system: MDA-N

Measured: GI50

CC(Oc1ccc(Cl)cc1Cl)C(=O)NN1C(=O)CSC1c1ccc(Cl)cc1 (configuration not stated)
inactive: COLO 205 > 100 µM | M14 47.1 µM | T47D 42.5 µM | UACC-62 43.5 µM | NCI-H226 17.6 µM | SW-620 > 100 µM | SNB-75 27.9 µM | OVCAR-5 > 100 µM | LOX IMVI 56 µM | SR 19.5 µM | ACHN 42.5 µM | SK-MEL-2 56.1 µM | HOP-92 21 µM | UO-31 > 100 µM | SN12C 20 µM | SK-OV-3 54.3 µM | 786-0 53.6 µM | HCT-116 57.9 µM

Cc1nc2ccc(Cl)cc2c(Cl)c1CCCl
inactive: COLO 205 57.3 µM | M14 31 µM | UACC-62 28.1 µM | NCI-H226 43.6 µM | SW-620 40.2 µM | SNB-75 29.4 µM | OVCAR-5 38.5 µM | LOX IMVI 43.6 µM | SR 34.4 µM | ACHN > 100 µM | SK-MEL-2 29.6 µM | MDA-N 8.15 µM | HOP-92 33.5 µM | UO-31 42.2 µM | SN12C 39.5 µM | SK-OV-3 > 100 µM | 786-0 > 100 µM | HCT-116 25.4 µM

CC(=O)OC1COC(Nc2nc(NCc3ccccc3)n(C)c(=O)c2N=O)C(OC(C)=O)C1OC(C)=O (configuration not stated)
inactive: COLO 205 > 10 µM | M14 > 10 µM | T47D > 10 µM | UACC-62 > 10 µM | NCI-H226 > 10 µM | SW-620 > 10 µM | SNB-75 > 10 µM | OVCAR-5 > 10 µM | LOX IMVI > 10 µM | ACHN > 10 µM | SK-MEL-2 > 10 µM | MDA-N > 10 µM | SN12C > 10 µM | SK-OV-3 > 10 µM | 786-0 > 10 µM | HCT-116 > 10 µM

CC1OC(OC2C(OC(=O)[C@]34CCC(C)(C)C[C@H]3C3=CC[C@@H]5[C@@]6(C)CC[C@H](OC7OC(C(=O)O)C(O)C(O)C7O)C(C)(C)[C@@H]6CC[C@@]5(C)[C@]3(C)CC4)OCC(O)C2O)C(O)C(O)C1OC1OCC(O)C(O)C1O (some centres not stated)
inactive: COLO 205 16.7 µM and 17.3 µM | M14 17.5 µM and 19.2 µM | T47D 34.8 µM and 56.9 µM | UACC-62 39.4 µM and 28 µM | NCI-H226 43.6 µM and 43.9 µM | OVCAR-5 48.2 µM and 31 µM | LOX IMVI 66.8 µM | SK-MEL-2 19.4 µM and 33.1 µM | MDA-N 17.9 µM and 18.2 µM | HOP-92 30.6 µM and 20.5 µM | UO-31 16.8 µM and 22.1 µM | SN12C 22.1 µM and 19.4 µM | SK-OV-3 > 100 µM and 82.8 µM | 786-0 49.3 µM and 65.5 µM | HCT-116 39.9 µM and 45.9 µM

Reference: ChEMBL document CHEMBL1201862, “PubChem BioAssay data set” (2004)
